In PubChem BioAssay AID1259407 (Chemical Carcinogenesis Research Information System (CCRIS), 2018) one finds mutagenic call data, which are given here for two compounds.

Activity calls are given as the source filed them. No rule for the calls is given here.

The data set has as its system CCRIS mutagenicity, Ames/micronucleus/aberration tests. The experiment in a line: CCRIS mutagenicity studies.
The mark [1] stands for this setting: Test System: AMES SALMONELLA TYPHIMURIUM, Strain/Indicator: TA98, Metabolic Activation: NONE, Method: PREINCUBATION
Setting [2] is: Test System: AMES SALMONELLA TYPHIMURIUM, Strain/Indicator: TA100, Metabolic Activation: NONE, Method: PREINCUBATION
The mark [3] stands for this setting: Test System: AMES SALMONELLA TYPHIMURIUM, Strain/Indicator: TA1535, Metabolic Activation: NONE, Method: PREINCUBATION
Where [4] appears, read: Test System: AMES SALMONELLA TYPHIMURIUM, Strain/Indicator: TA1537, Metabolic Activation: NONE, Method: PREINCUBATION

Consider `CCCNC(=O)NS(=O)(=O)c1ccc(Cl)cc1`, for which the mutagenic call by setting is: (End Point: IN VITRO CHROMOSOMAL ABERRATIONS, Test System: CHO CELLS, Metabolic Activation: NONE) “inactive; negative”; (End Point: IN VITRO CHROMOSOMAL ABERRATIONS, Test System: CHO CELLS, Metabolic Activation: RAT, LIVER, S-9, AROCLOR 1254) “inactive; negative”; (Test System: AMES SALMONELLA TYPHIMURIUM, Strain/Indicator: TA98, Metabolic Activation: HAMSTER, LIVER, S-9, AROCLOR 1254 (10%), Method: PREINCUBATION) “inactive; negative”; under setting [1], “inactive; negative”; (Test System: AMES SALMONELLA TYPHIMURIUM, Strain/Indicator: TA98, Metabolic Activation: RAT, LIVER, S-9, AROCLOR 1254 (10%), Method: PREINCUBATION) “inactive; negative”; (Test System: AMES SALMONELLA TYPHIMURIUM, Strain/Indicator: TA100, Metabolic Activation: HAMSTER, LIVER, S-9, AROCLOR 1254 (10%), Method: PREINCUBATION) “inactive; negative”. The mutagenic call under setting [2] is “inactive; negative”; the mutagenic call (Test System: AMES SALMONELLA TYPHIMURIUM, Strain/Indicator: TA100, Metabolic Activation: RAT, LIVER, S-9, AROCLOR 1254 (10%), Method: PREINCUBATION) was “inactive; negative”; the mutagenic call (Test System: AMES SALMONELLA TYPHIMURIUM, Strain/Indicator: TA1535, Metabolic Activation: HAMSTER, LIVER, S-9, AROCLOR 1254 (10%), Method: PREINCUBATION) was “inactive; negative”; the mutagenic call under setting [3] was “inactive; negative”; the mutagenic call (Test System: AMES SALMONELLA TYPHIMURIUM, Strain/Indicator: TA1535, Metabolic Activation: RAT, LIVER, S-9, AROCLOR 1254 (10%), Method: PREINCUBATION) is “inactive; negative”; the mutagenic call (Test System: AMES SALMONELLA TYPHIMURIUM, Strain/Indicator: TA1537, Metabolic Activation: HAMSTER, LIVER, S-9, AROCLOR 1254 (10%), Method: PREINCUBATION) was “inactive; negative”. The mutagenic call under setting [4] is “inactive; negative”; the mutagenic call (Test System: AMES SALMONELLA TYPHIMURIUM, Strain/Indicator: TA1537, Metabolic Activation: RAT, LIVER, S-9, AROCLOR 1254 (10%), Method: PREINCUBATION) was “inactive; negative”; the mutagenic call (Test System: MOUSE LYMPHOMA, Strain/Indicator: L5178Y (TK+/TK-), Metabolic Activation: NONE, Method: SUSPENSION/PLATE) was “inactive; negative”; the mutagenic call (Test System: MOUSE LYMPHOMA, Strain/Indicator: L5178Y (TK+/TK-), Metabolic Activation: RAT, LIVER, S-9, AROCLOR 1254, Method: SUSPENSION/PLATE) was “inactive; negative”.

For the compound `Cc1cccc(O)c1`, the mutagenic call by setting is: (End Point: IN VITRO CHROMOSOMAL ABERRATIONS, Test System: SYRIAN HAMSTER EMBRYO (SHE) CELLS, Metabolic Activation: NONE) “active; positive (structural changes)”; (End Point: IN VITRO CHROMOSOMAL ABERRATIONS, Test System: SYRIAN HAMSTER EMBRYO (SHE) CELLS, Metabolic Activation: RAT, LIVER, S-9) “active; positive (structural changes)”; under setting [1], “inactive; negative”; (Test System: AMES SALMONELLA TYPHIMURIUM, Strain/Indicator: TA98, Metabolic Activation: RAT, LIVER, S-9, SODIUM PHENOBARBITAL AND 5,6-BENZOFLAVONE, Method: PREINCUBATION) “inactive; negative”; under setting [2], “inactive; negative”; (Test System: AMES SALMONELLA TYPHIMURIUM, Strain/Indicator: TA100, Metabolic Activation: RAT, LIVER, S-9, SODIUM PHENOBARBITAL AND 5,6-BENZOFLAVONE, Method: PREINCUBATION) “inactive; negative”. In addition, the mutagenic call is “inactive; negative” (Test System: AMES SALMONELLA TYPHIMURIUM, Strain/Indicator: TA102, Metabolic Activation: NONE, Method: PREINCUBATION); “inactive; negative” (Test System: AMES SALMONELLA TYPHIMURIUM, Strain/Indicator: TA102, Metabolic Activation: RAT, LIVER, S-9, SODIUM PHENOBARBITAL AND 5,6-BENZOFLAVONE, Method: PREINCUBATION); “inactive; negative” (Test System: AMES SALMONELLA TYPHIMURIUM, Strain/Indicator: TA104, Metabolic Activation: NONE, Method: PREINCUBATION); “inactive; negative” (Test System: AMES SALMONELLA TYPHIMURIUM, Strain/Indicator: TA104, Metabolic Activation: RAT, LIVER, S-9, SODIUM PHENOBARBITAL AND 5,6-BENZOFLAVONE, Method: PREINCUBATION); “inactive; negative” under setting [3]; “inactive; negative” (Test System: AMES SALMONELLA TYPHIMURIUM, Strain/Indicator: TA1535, Metabolic Activation: RAT, LIVER, S-9, SODIUM PHENOBARBITAL AND 5,6-BENZOFLAVONE, Method: PREINCUBATION). In addition, the mutagenic call is, setting by setting: under setting [4], “inactive; negative”; (Test System: AMES SALMONELLA TYPHIMURIUM, Strain/Indicator: TA1537, Metabolic Activation: RAT, LIVER, S-9, SODIUM PHENOBARBITAL AND 5,6-BENZOFLAVONE, Method: PREINCUBATION) “inactive; negative”; (Test System: Ames Salmonella typhimurium, Strain/Indicator: TA98, Metabolic Activation: Hamster, Liver, S-9, Aroclor 1254 (10%), Method: Preincubation) “inactive; negative”; (Test System: Ames Salmonella typhimurium, Strain/Indicator: TA98, Metabolic Activation: None, Method: Preincubation) “inactive; negative”; (Test System: Ames Salmonella typhimurium, Strain/Indicator: TA98, Metabolic Activation: Rat, Liver, S-9, Aroclor 1254 (10%), Method: Preincubation) “inactive; negative”; (Test System: Ames Salmonella typhimurium, Strain/Indicator: TA100, Metabolic Activation: Hamster, Liver, S-9, Aroclor 1254 (10%), Method: Preincubation) “inactive; negative”. Further, the mutagenic call was “inactive; negative” (Test System: Ames Salmonella typhimurium, Strain/Indicator: TA100, Metabolic Activation: None, Method: Preincubation); “inactive; negative” (Test System: Ames Salmonella typhimurium, Strain/Indicator: TA100, Metabolic Activation: Rat, Liver, S-9, Aroclor 1254 (10%), Method: Preincubation); “inactive; negative” (Test System: Ames Salmonella typhimurium, Strain/Indicator: TA1535, Metabolic Activation: Hamster, Liver, S-9, Aroclor 1254 (10%), Method: Preincubation); “inactive; negative” (Test System: Ames Salmonella typhimurium, Strain/Indicator: TA1535, Metabolic Activation: None, Method: Preincubation); “inactive; negative” (Test System: Ames Salmonella typhimurium, Strain/Indicator: TA1535, Metabolic Activation: Rat, Liver, S-9, Aroclor 1254 (10%), Method: Preincubation); “inactive; negative” (Test System: Ames Salmonella typhimurium, Strain/Indicator: TA1537, Metabolic Activation: Hamster, Liver, S-9, Aroclor 1254 (10%), Method: Preincubation). The mutagenic call runs as follows: (Test System: Ames Salmonella typhimurium, Strain/Indicator: TA1537, Metabolic Activation: None, Method: Preincubation) “inactive; negative”; (Test System: Ames Salmonella typhimurium, Strain/Indicator: TA1537, Metabolic Activation: Rat, Liver, S-9, Aroclor 1254 (10%), Method: Preincubation) “inactive; negative”; (Test System: E. COLI, Strain/Indicator: WP2UVRA/PKM101, Metabolic Activation: NONE, Method: PREINCUBATION) “inactive; negative”; (Test System: E. COLI, Strain/Indicator: WP2UVRA/PKM101, Metabolic Activation: RAT, LIVER, S-9, PHENOBARBITAL AND BETA-NAPHTHOFLAVONE, Method: PREINCUBATION) “inactive; negative”; (Test System: E. COLI, Strain/Indicator: WP2UVRA, Metabolic Activation: NONE, Method: PREINCUBATION) “inactive; negative”; (Test System: E. COLI, Strain/Indicator: WP2UVRA, Metabolic Activation: RAT, LIVER, S-9, PHENOBARBITAL AND BETA-NAPHTHOFLAVONE, Method: PREINCUBATION) “inactive; negative”.
